From US11000530B2, “Methods and compositions for the treatment of ophthalmic conditions” (Murray & Poole Enterprises, Limited, priority 2017, dated 2021)

Experiments:
[1] = Sedimentation in liquid solutions; format: physicochemical; conditions: micronized, particulate form
[2] = exposure to oxygen: oxygenation of diclofenac, degradation of ofloxacin into ofloxacin-N-oxide; cited from earlier work

time to sedimentation in liquid solutions [1] | SMILES | compatibility of diclofenac and ofloxacin [2]
less than one minute | CC(=O)OCC(=O)[C@@]1(O)CC[C@H]2[C@@H]3CCC4=CC(=O)C=C[C@]4(C)[C@H]3[C@@H](O)C[C@@]21C [Prednisolone acetate] | –
– | O=C(O)Cc1ccccc1Nc1c(Cl)cccc1Cl [Diclofenac] | generally incompatible
